# Assay results: US20170273922A1, “UREA AND BIS-UREA BASED COMPOUNDS AND ANALOGUES THEREOF USEFUL IN THE TREATMENT OF ANDROGEN RECEPTOR MEDIATED DISEASES OR DISORDERS” (THE ROYAL INSTITUTION FOR THE ADVACEMENT OF LEARNING/MCGILL …, priority 2014, published 2017)
# Entries after “also recorded” stand apart in the source; their conditions may differ.
# What was measured:
# H1975 cells = assay: MTT assay (cytotoxicity), H1975 cells; type: cell-based; settings: 72 h treatment, Table 6.1
# Protocol: (§1) MTT assays: LNCaP, 22Rv1, Du145, H1975, A549, MB231 and MCF-7 cells are maintained in RPMI 1640 supplemented with 10% FBS. Cells were seeded at a density of 6-7×10^3 cells per well in 96-well plates. After overnight incubation, cells in fresh RPMI 1640 supplemented with 10% FBS were exposed to DMSO vehicle control or test compounds at designated concentrations for 72 h. Viable cells were evaluated by MTT assays. Experiments were performed in triplicate and repeated at least twice.
# VP16-AR(507-919) = VP16-AR(507-919) (NTD-deleted) PSA-luc reporter assay; settings: 10 nM DHT, 24 h; PC3 or HEK293 cells
# MB231 cells = assay: MTT assay (cytotoxicity), MB231 cells; type: cell-based; settings: 72 h treatment, Table 6.1
# Protocol: as §1
# [1] = system: liver hepatocellular carcinoma; assay: MTT assay (72 h), liver hepatocellular carcinoma cell line of Table 6.1; type: cell-based; settings: HepG2 cells, 72 h treatment, read-out: Cytotoxicity (IC50, μM) HepG2
# MCF-7 cells = assay: MTT assay (cytotoxicity), MCF-7 cells; type: cell-based; settings: 72 h treatment, Table 6.1
# Protocol: as §1
# LNCaP cells = assay: MTT assay (cytotoxicity), LNCaP cells; type: cell-based
# How it was run: (§2)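 72 h continuous drug exposure, RPMI 1640/10% FBS, MTT endpoint; DMSO vehicle control.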
# A549 cells = assay: MTT assay (cytotoxicity), A549 cells; type: cell-based; settings: 72 h treatment, Table 6.1
# Protocol: as §1
# full-length IRF3 = molecular target: T1, full-length IRF3 (Homo sapiens, UniProt Q14653); assay: Full-length IRF3 ISRE-luc reporter assay; type: cell-based; settings: PC3 cells, 24 h
# T1 construct: co-transfected with full-length IRF3 or IRF3DBD-AR(1-547) expressing plasmids; expressed in transfected cells
# T1 sequence (Q14653 1-427): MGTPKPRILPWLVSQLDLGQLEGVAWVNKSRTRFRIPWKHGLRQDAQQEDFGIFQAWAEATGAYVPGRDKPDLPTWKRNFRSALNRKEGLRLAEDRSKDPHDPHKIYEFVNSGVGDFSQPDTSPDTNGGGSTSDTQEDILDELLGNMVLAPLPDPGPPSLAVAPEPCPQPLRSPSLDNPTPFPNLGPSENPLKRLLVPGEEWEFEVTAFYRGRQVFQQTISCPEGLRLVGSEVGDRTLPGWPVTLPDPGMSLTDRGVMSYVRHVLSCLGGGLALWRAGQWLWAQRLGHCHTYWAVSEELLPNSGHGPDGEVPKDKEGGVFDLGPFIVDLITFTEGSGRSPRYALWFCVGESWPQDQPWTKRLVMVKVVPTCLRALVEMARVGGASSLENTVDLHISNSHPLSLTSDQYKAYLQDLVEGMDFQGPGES
# Text: For all of the others, cells were co-transfected with full-length IRF3 or IRF3DBD-AR(1-547) expressing plasmids and with the ISRE-luc reporter and pRL-TK plasmids. […] As IRF3DBD-AR(1-547) contains the DBD of IRF3, ISRE-luc reporter instead of the PSA-luc reporter was used in our assays.
# HEK293 cells were co-transfected with IRF3DBD(1-133) or IRF3DBD-AR(1-547) or IRF3DBD-AR(181-547) or full-length IRF3 expressing plasmids and with the ISRE-luc reporter and the Renilla luciferase pRL-TK plasmids.
# Here, IRF3-AR(1-547) is the fusion of IRF3 DBD with the AR NTD (1-547). […] The plasmids expressing IRF3-AR(1-547) (A) or wild-type IRF3 (B) or IRF3 DBD (for NT) as well as ISRE-luc and pRL-TK were transiently transfected into PC3 cells. […] Bic, bicalutamide; EPI, EPI-001.
# IRF3DBD-AR(1-547) = molecular target: T2, IRF3DBD-AR(1-547) (Homo sapiens, UniProt P10275); assay: IRF3DBD-AR(1-547) ISRE-luc reporter assay; type: cell-based; settings: PC3 cells, 24 h
# T2 construct: IRF3-AR(1-547) is the fusion of IRF3 DBD with the AR NTD (1-547); expressed in transfected cells
# T2 sequence (P10275 1-547): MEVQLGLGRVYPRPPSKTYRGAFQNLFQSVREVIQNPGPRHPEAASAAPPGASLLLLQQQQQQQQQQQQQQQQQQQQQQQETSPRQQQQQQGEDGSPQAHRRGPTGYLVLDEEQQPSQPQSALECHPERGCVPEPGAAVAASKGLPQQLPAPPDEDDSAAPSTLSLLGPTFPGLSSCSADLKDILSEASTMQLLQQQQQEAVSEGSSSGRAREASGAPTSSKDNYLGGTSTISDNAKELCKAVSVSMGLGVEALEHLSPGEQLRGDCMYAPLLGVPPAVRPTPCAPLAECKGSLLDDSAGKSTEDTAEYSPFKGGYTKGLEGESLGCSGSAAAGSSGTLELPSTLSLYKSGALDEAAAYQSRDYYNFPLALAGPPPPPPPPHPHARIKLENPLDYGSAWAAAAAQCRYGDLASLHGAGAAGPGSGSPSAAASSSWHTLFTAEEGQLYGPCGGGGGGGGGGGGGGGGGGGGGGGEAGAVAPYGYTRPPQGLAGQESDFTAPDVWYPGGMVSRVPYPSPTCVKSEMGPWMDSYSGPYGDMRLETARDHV
# 22Rv1 cells = assay: MTT assay (cytotoxicity), 22Rv1 cells; type: cell-based
# How it was run: as §2
# DU145 cells = assay: MTT assay (cytotoxicity), DU145 cells; type: cell-based; settings: 72 h, Table 2.2
# How it was run: as §2
# AR-v7 in LNCaP cells = molecular target: T3, AR-v7 in LNCaP cells (Homo sapiens, UniProt P10275); assay: PSA-luc reporter assay in LNCaP cells transiently transfected with pIRES-AR-v7; settings: 24 h
# T3 sequence (P10275 1-644 isoform P10275-3): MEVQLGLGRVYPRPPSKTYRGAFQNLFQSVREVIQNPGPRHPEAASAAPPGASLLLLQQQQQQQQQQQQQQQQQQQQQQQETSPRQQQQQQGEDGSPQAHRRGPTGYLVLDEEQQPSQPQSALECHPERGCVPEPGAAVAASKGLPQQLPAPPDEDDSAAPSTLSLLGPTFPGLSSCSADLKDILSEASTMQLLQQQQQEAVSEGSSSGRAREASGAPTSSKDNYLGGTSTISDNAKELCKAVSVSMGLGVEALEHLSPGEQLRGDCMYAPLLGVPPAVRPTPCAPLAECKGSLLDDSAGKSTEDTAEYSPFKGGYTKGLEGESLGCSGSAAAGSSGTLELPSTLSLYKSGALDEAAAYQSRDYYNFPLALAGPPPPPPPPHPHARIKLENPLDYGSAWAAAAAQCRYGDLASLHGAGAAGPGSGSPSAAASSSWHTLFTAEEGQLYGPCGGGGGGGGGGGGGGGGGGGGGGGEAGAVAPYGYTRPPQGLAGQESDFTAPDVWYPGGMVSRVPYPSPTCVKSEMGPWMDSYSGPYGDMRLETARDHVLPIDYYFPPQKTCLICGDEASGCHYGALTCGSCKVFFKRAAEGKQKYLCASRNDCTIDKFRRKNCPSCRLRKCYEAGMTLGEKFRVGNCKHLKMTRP
# Protocol: NT, LNCaP cells were transiently transfected with pIRES vector, PSA-luc and pRL-TK. […] Cells were then transiently transfected with PSA-Luc and pRL-TK and exposed to DMSO or compounds for 24 h, in triplicate.
# [2] = system: endogenous AR-Vs in 22Rv1 cells; assay: PSA-luc reporter assay in androgen-starved 22Rv1 cells (endogenous LBD-truncated AR variants); settings: androgen-starved 3 days, 24 h exposure
# Protocol: NT, LNCaP cells were transiently transfected with pIRES vector, PSA-luc and pRL-TK. […] Cells were then transiently transfected with PSA-Luc and pRL-TK and exposed to DMSO or compounds for 24 h, in triplicate. NT, not transfected with PSA-luc.
# The ARs were probed by N-terminal directed AR antibody (N20, Santa Cruz); B) The 22Rv1 cells were androgen-starved (in phenol red-free medium+10% CS-FBS) for 3 days to ensure the full-length AR expressed in 22Rv1 are not activated. The 22Rv1 cells were subsequently co-transfected with PSA-luc and pRL-TK plasmids. […] Cells in phenol red-free medium+10% CS-FBS were exposed to DMSO or compounds for 24 h and harvested for Western blot analysis.
# The cells were androgen-starved for 3 days and transfected with PSA-Luc and pRL-TK plasmids. NT, cells were transfected with empty vector. Cells were exposed to vehicle control or compounds for 24 h.
# AR^v567es = molecular target: T4, AR^v567es (Homo sapiens, UniProt P10275); settings: 25 μM; COS-1 cells; cited from earlier work
# T4 construct: host or cells: COS-1
# AR-v7 = molecular target: T5, AR-v7 (Homo sapiens, UniProt P10275); assay: AR-v7-dependent PSA-luc reporter assay in HEK293 cells; settings: 25 μM
# T5 sequence (P10275 1-644 isoform P10275-3): T3 sequence (P10275 1-644 isoform P10275-3)
# Protocol: Cells were exposed to vehicle control or compounds at designated concentrations (μM) for 48 h.
# [3] = MTT assay (cytotoxicity), H1975 cells; type: cell-based; settings: human, 72 h treatment, Table 6.1
# Protocol: as §1
# [4] = MTT assay (cytotoxicity), MB231 cells; type: cell-based; settings: human, 72 h treatment, Table 6.1
# Protocol: as §1
# [5] = MTT assay (72 h), liver hepatocellular carcinoma cell line of Table 6.1; type: cell-based; settings: human, HepG2 cells (liver hepatocellular carcinoma), 72 h treatment, read-out: Cytotoxicity (IC50, μM) HepG2
# [6] = MTT assay (cytotoxicity), MCF-7 cells; type: cell-based; settings: human, 72 h treatment, Table 6.1
# Protocol: as §1
# [7] = MTT assay (cytotoxicity), LNCaP cells; type: cell-based; settings: human, LNCaP cells, 72 h, Table 2.4
# How it was run: as §2
# [8] = MTT assay (cytotoxicity), A549 cells; type: cell-based; settings: human, 72 h treatment, Table 6.1
# Protocol: as §1
# [9] = MTT assay (cytotoxicity), 22Rv1 cells; type: cell-based; settings: human, 22Rv1 cells, 72 h, Table 2.4
# How it was run: as §2
# [10] = MTT assay (cytotoxicity), DU145 cells; type: cell-based; settings: human, DU145 cells, Table 2.4
# How it was run: as §2
# [11] = LNCaP cells, 72 h treatment, Table 6.1
# [12] = 22Rv1 cells, 72 h treatment, Table 6.1
# T4 sequence (P10275 with tags, fused parts or gaps limits assumed): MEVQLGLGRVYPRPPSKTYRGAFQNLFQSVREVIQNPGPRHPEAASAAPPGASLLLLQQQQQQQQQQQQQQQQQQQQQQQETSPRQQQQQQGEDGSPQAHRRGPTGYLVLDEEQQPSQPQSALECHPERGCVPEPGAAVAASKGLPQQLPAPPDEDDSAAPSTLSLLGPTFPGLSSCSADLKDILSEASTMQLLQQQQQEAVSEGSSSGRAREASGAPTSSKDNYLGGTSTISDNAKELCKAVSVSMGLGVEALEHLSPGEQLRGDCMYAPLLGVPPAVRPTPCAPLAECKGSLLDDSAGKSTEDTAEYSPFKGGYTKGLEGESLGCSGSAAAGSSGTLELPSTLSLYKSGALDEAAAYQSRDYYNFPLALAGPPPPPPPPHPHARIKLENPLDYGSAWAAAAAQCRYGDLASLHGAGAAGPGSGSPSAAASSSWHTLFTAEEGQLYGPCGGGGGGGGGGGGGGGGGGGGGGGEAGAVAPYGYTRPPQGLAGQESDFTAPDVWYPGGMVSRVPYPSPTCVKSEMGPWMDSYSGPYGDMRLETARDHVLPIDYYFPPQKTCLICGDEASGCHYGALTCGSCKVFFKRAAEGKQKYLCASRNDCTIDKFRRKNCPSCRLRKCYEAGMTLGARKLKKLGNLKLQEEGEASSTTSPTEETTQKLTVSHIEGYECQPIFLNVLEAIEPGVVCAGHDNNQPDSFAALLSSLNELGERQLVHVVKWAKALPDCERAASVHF
Structure (SMILES),IC50 (H1975 cells) [µM],inhibition of DHT-induced activation of VP16-AR(507-919) (PSA-luc) (VP16-AR(507-919)),IC50 (MB231 cells) [µM],IC50 [1] [µM],IC50 (MCF-7 cells) [µM],IC50 (LNCaP cells; [11]) [µM],IC50 (A549 cells) [µM],activity against wild-type IRF3 (ISRE-luc) (full-length IRF3),inhibition of IRF3-AR(1-547)-dependent ISRE-luc reporter activity (IRF3DBD-AR(1-547)),IC50 (22Rv1 cells; [12]) [µM],further results
N#Cc1ccc(NC(=O)N/C=C/c2cccc(C(F)(F)F)c2)cc1C(F)(F)F [Compound 410],2.5,inactive,4,0.92,2.6,1.8,2.7,inactive,potently inhibit,2.5,"IC50 (LNCaP cells; 72 h, Table 2.2): 4.4 µM; IC50 (DU145 cells): 10.4 µM"
O=C(N/C=C/c1cccc(C(F)(F)F)c1)Nc1cnccn1 [Compound 558],2.4,,0.3,0.14,< 0.5,0.06,0.09,,,0.1,"IC50 (LNCaP cells; 72 h, Table 2.1): 0.06 µM; IC50 (22Rv1 cells; 72 h, Table 2.1): 0.1 µM"
"CC(C)(c1ccc(OCC(O)CO)cc1)c1ccc(OCC(O)CCl)cc1 (stereo not drawn) [EPI-001, reference compound]",,,,,,,,,,,activity in LNCaP cells with forced expression of AR-v7 (PSA-luc) (AR-v7 in LNCaP cells): remain active; activity against constitutive activation of endogenous AR-Vs in 22Rv1 cells (PSA-luc) [2]: active; suppression of constitutive activation of AR^v567es in PSA-Luc reporter assay (AR^v567es): half; inhibition of constitutive activation of AR-v7 (PSA-luc) (AR-v7): inhibit; also recorded: active
N#Cc1ccc(NC(=O)N/C=C/c2cccs2)cc1C(F)(F)F [Compound 428],,inactive,,,,,,inactive,potently inhibit,,IC50 at 72 h [3]: 7.7 µM; IC50 at 72 h [4]: 7.6 µM; IC50 at 72 h [5]: 2.4 µM; IC50 at 72 h [6]: 5.2 µM; IC50 at 72 h [7]: 2.1 µM; IC50 at 72 h [8]: 4.7 µM; IC50 at 72 h [9]: 3.7 µM; IC50 at 72 h [10]: 5.1 µM
